Results taken from the CheMixHub viscosity set.

Assay: xn = mol fraction of the nth substance listed

CCOC(C)=O + CN1CCCC1=O
viscosity [mPa·s], 101 kPa
Conditions | x2 = 0.1022 | x2 = 0.2038 | x2 = 0.305 | x2 = 0.4057 | x2 = 0.506 | x2 = 0.6057 | x2 = 0.705 | x2 = 0.8038 | x2 = 0.9021
303.15 K | 0.556 | 0.725 | 0.879 | 1.023 | 1.154 | 1.271 | 1.369 | 1.449 | 1.511
308.15 K | 0.523 | 0.669 | 0.804 | 0.928 | 1.042 | 1.147 | 1.235 | 1.307 | 1.365
313.15 K | 0.492 | 0.628 | 0.753 | 0.869 | 0.975 | 1.07 | 1.153 | 1.221 | 1.274
318.15 K | 0.462 | 0.582 | 0.695 | 0.798 | 0.893 | 0.976 | 1.051 | 1.114 | 1.165

CCOc1ccccc1 + CN(C)C=O
viscosity [mPa·s], 101.33 kPa
Conditions | x1 = 0.031 | x1 = 0.091 | x1 = 0.153 | x1 = 0.223 | x1 = 0.304 | x1 = 0.463 | x1 = 0.556 | x1 = 0.642 | x1 = 0.8
298 K | 0.815 | 0.839 | 0.862 | 0.889 | 0.919 | 0.978 | 1.012 | 1.042 | 1.097
303 K | 0.769 | 0.788 | 0.808 | 0.831 | 0.857 | 0.907 | 0.936 | 0.963 | 1.01
308 K | 0.73 | 0.747 | 0.763 | 0.783 | 0.804 | 0.847 | 0.871 | 0.893 | 0.933

OCC(O)CO + CN(C)C=O
viscosity [mPa·s], 101 kPa
Conditions | x1 = 0.105 | x1 = 0.209 | x1 = 0.312 | x1 = 0.414 | x1 = 0.514 | x1 = 0.613 | x1 = 0.712 | x1 = 0.809 | x1 = 0.905
303.15 K | 1.5 | 2.41 | 4.22 | 7.36 | 14.2 | 19.9 | 64.6 | 127.5 | 258.7
318.15 K | 1.24 | 1.84 | 2.91 | 4.77 | 8.35 | – | 27.3 | 50.5 | 91.1

CCCCCCCCn1cc[n+](C)c1.[Cl-] + CO
298.15 K, 101 kPa
Conditions | viscosity [mPa·s]
x2 = 0.0565 | 10350
x2 = 0.1686 | 3456
x2 = 0.3525 | 534

CCOC(C)=O + CO
viscosity [mPa·s]
Conditions | 293.15 K | 298.15 K | 303.15 K | 308.15 K | 313.15 K | 318.15 K | 323.15 K
100 kPa, x2 = 0.4071 | 0.4216 | 0.4015 | 0.384 | 0.365 | 0.3527 | 0.3431 | 0.3216
100 kPa, x2 = 0.6468 | 0.4612 | 0.4319 | 0.4112 | 0.3868 | 0.3681 | 0.3501 | 0.3336
100 kPa, x2 = 0.8048 | 0.499 | 0.4697 | 0.4463 | 0.4182 | 0.3988 | 0.3758 | 0.3564
100 kPa, x2 = 0.9168 | 0.5454 | 0.5164 | 0.4893 | 0.4559 | 0.4327 | 0.4083 | 0.3858
101 kPa, x1 = 0.065 | 0.549 | – | 0.477 | – | 0.424 | – | 0.378
101 kPa, x1 = 0.115 | 0.528 | – | 0.462 | – | 0.413 | – | 0.368
101 kPa, x1 = 0.306 | 0.475 | – | 0.422 | – | 0.377 | – | 0.342
101 kPa, x1 = 0.321 | 0.471 | – | 0.418 | – | 0.376 | – | 0.341
101 kPa, x1 = 0.445 | – | – | – | – | 0.364 | – | 0.333
101 kPa, x1 = 0.598 | 0.444 | – | 0.397 | – | 0.36 | – | 0.328
101 kPa, x1 = 0.797 | – | – | – | – | 0.362 | – | 0.332

COC(=O)CC(C)=O + CO
viscosity [mPa·s], 101.3 kPa
Conditions | x1 = 0.1017 | x1 = 0.1887 | x1 = 0.3013 | x1 = 0.4048 | x1 = 0.5038 | x1 = 0.6056 | x1 = 0.7015 | x1 = 0.8024 | x1 = 0.8994
298.15 K | 0.599 | 0.662 | 0.757 | 0.858 | 0.954 | 1.064 | 1.163 | 1.288 | 1.413
303.15 K | 0.563 | 0.618 | 0.704 | 0.793 | 0.879 | 0.978 | 1.066 | 1.176 | 1.288
308.15 K | 0.525 | 0.578 | 0.657 | 0.737 | 0.815 | 0.902 | 0.984 | 1.082 | 1.18

COC(=O)CC(C)=O + COC(=O)c1ccccc1
viscosity [mPa·s], 101.33 kPa
Conditions | x1 = 0.0981 | x1 = 0.1935 | x1 = 0.2966 | x1 = 0.4001 | x1 = 0.4987 | x1 = 0.5986 | x1 = 0.6984 | x1 = 0.798 | x1 = 0.8977
298.15 K | 1.775 | 1.732 | 1.703 | 1.667 | 1.639 | 1.615 | 1.598 | 1.583 | 1.569
303.15 K | 1.609 | 1.573 | 1.548 | 1.515 | 1.49 | 1.469 | 1.453 | 1.44 | 1.429
308.15 K | 1.467 | 1.435 | 1.413 | 1.382 | 1.362 | 1.343 | 1.329 | 1.316 | 1.306

COC(=O)CC(C)=O + COC(C)=O
viscosity [mPa·s], 101.33 kPa
Conditions | x1 = 0.0996 | x1 = 0.1998 | x1 = 0.3009 | x1 = 0.397 | x1 = 0.4973 | x1 = 0.5975 | x1 = 0.6969 | x1 = 0.7993 | x1 = 0.9006
298.15 K | 0.448 | 0.52 | 0.596 | 0.688 | 0.798 | 0.915 | 1.044 | 1.202 | 1.373
303.15 K | 0.424 | 0.489 | 0.564 | 0.643 | 0.744 | 0.843 | 0.963 | 1.104 | 1.257
308.15 K | 0.403 | 0.463 | 0.533 | 0.603 | 0.696 | 0.786 | 0.913 | 1.024 | 1.155

COc1ccc(C=O)cc1 + COCCO
viscosity [mPa·s], 101 kPa
Conditions | x1 = 0.0753 | x1 = 0.1549 | x1 = 0.2391 | x1 = 0.3283 | x1 = 0.4231 | x1 = 0.5238 | x1 = 0.6311 | x1 = 0.7457 | x1 = 0.8684
303.15 K | 1.502 | 1.518 | 1.567 | 1.656 | 1.793 | 1.984 | 2.242 | 2.577 | 3.006
308.15 K | 1.463 | 1.488 | 1.537 | 1.614 | 1.723 | 1.87 | 2.062 | 2.308 | 2.617
313.15 K | 1.214 | 1.258 | 1.32 | 1.404 | 1.513 | 1.651 | 1.824 | 2.037 | 2.298
318.15 K | 1.129 | 1.175 | 1.236 | 1.312 | 1.408 | 1.525 | 1.669 | 1.843 | 2.054

COc1ccc(C=O)cc1 + Cc1cc(C)cc(C)c1
viscosity [mPa·s], 101 kPa
Conditions | x1 = 0.1142 | x1 = 0.2248 | x1 = 0.3321 | x1 = 0.4361 | x1 = 0.537 | x1 = 0.635 | x1 = 0.7302 | x1 = 0.8227 | x1 = 0.9126
303.15 K | 0.686 | 0.766 | 0.825 | 1.044 | 1.283 | 1.581 | 1.77 | 2.826 | 2.963
308.15 K | 0.645 | 0.713 | 0.7707 | 0.96 | 1.148 | 1.395 | 1.582 | 2.452 | 2.665
313.15 K | 0.438 | 0.487 | 0.547 | 0.676 | 0.825 | 1 | 1.094 | 1.859 | 1.969
318.15 K | 0.392 | 0.435 | 0.5 | 0.614 | 0.733 | 0.9 | 1 | 1.517 | 1.713

COc1ccc(C=O)cc1 + Cc1ccc(O)cc1
Conditions | viscosity [mPa·s]
308.15 K, 101 kPa, x1 = 0.8868 | 3.965

COc1ccc(C=O)cc1 + Cc1cccc(O)c1
Conditions | viscosity [mPa·s]
318.15 K, 101 kPa, x1 = 0.4656 | 4.085

CCCC[n+]1ccc(C)cc1.[Cl][Al-]([Cl])([Cl])[Cl] + Cc1ccccc1
101 kPa, x2 = 0.38
Conditions | viscosity [mPa·s]
298.15 K | 13.8
303.15 K | 12.8
308.15 K | 10.8
313.15 K | 9.4
318.15 K | 8.5
323.15 K | 7.6

CCOC(C)=O + Cc1ccccc1
viscosity [mPa·s], 101 kPa
Conditions | 298.15 K | 308.15 K
x1 = 0.045 | 0.538 | 0.49
x1 = 0.1 | 0.534 | –
x1 = 0.1501 | 0.514 | 0.472
x1 = 0.21 | 0.512 | –
x1 = 0.2483 | 0.495 | 0.457
x1 = 0.31 | 0.506 | –
x1 = 0.3517 | 0.478 | 0.443
x1 = 0.41 | 0.484 | –
x1 = 0.4469 | 0.464 | 0.431
x1 = 0.4912 | 0.459 | 0.426
x1 = 0.51 | 0.482 | –
x1 = 0.5503 | 0.452 | 0.42
x1 = 0.61 | 0.478 | –
x1 = 0.6489 | 0.443 | 0.411
x1 = 0.71 | 0.455 | –
x1 = 0.749 | 0.436 | 0.403
x1 = 0.81 | 0.445 | –
x1 = 0.8507 | 0.431 | 0.395
x1 = 0.9 | 0.428 | –
x1 = 0.9432 | 0.429 | 0.39
x2 = 0.1513 | 0.466 | –
x2 = 0.442 | 0.481 | –
x2 = 0.7034 | 0.509 | –
